Test results as given in patent US9637516B2, “Betulinic acid proline derivatives as HIV inhibitors” (HETERO RESEARCH FOUNDATION, priority 2012, dated 2017).

Legend:
[1] = tested on: MT2 cells; assay: in vitro; assay type: cell-based; settings: human, 1 µM
Method: (§1) For cyto-toxicity assay the same amount of MT2 cells as in antiviral assay without virus was added to the 96 well plates. The cyto-toxicity was measured using MTT reagent in parallel with p24 estimation. The percent viability is calculated in comparison with vehicle control.

[2] = in vitro; assay type: cell-based; settings: human, Cytotoxicity % viability
Method: as §1

[3] = tested on: HIV-1 strain 92HT599; assay: Antiviral activity: p24 estimation in MT2 cells infected with HIV-1 strain 92HT599; assay type: cell-based; settings: for inhibition at 0.1 µM: Human immunodeficiency virus 1, 100 nM; for inhibition at 0.1 µM / inhibition at 1 µM: HIV-1 92HT599, p24, ~96 hours; for inhibition at 1 µM: Human immunodeficiency virus 1, 1000 nM; for IC50: Human immunodeficiency virus 1, HIV-1 92HT599, p24
Method: MT2 cells were infected with HIV-1 strain 92HT599 (10 TCID 50/30000 cells). The infected cells were plated at the concentration of ˜30 000 cells per well in 96 well plate. Test compound was added to the micro plate in defined format with the final concentration of DMSO (vehicle) is not more than 1%. Incubation was carried out in CO2 incubator for ˜96 hours for viral infection. At the end of incubation period an aliquot from each well was taken for p24 estimation. The quantitation of p24 is an index for antiviral activity of the compound. Percent inhibition was calculated with reference to control values (vehicle controls). p-24 estimation was carried out using Advance biosciences kit as per the procedure detailed by supplier.

[4] = Single dose oral pharmacokinetic study; assay type: in vivo, mice; settings: mouse, plasma
Method: The test item was administered through oral route to animals (rat/mice) at 30 mg/kg dose in a suitable vehicle at 10 ml/kg dose volume. Blood samples (˜50 uL at each time point) were collected from retro-orbital plexus using K3 EDTA as anticoagulant in eppendorf tubes at defined time intervals under light ether anesthesia. The samples were centrifuged at 3500×g to separate plasma and stored at −80° C. until analysis.
Sample analysis: Test samples were analyzed using LC-MS-MS after developing fit-for-purpose method for each of test compound.

[5] = Mice oral PK @30 mg/kg (Table 3)
[6] = Mice oral PK @30 mg/kg (Table 4)

| SMILES | Cytotoxicity % viability [1] [%] | viability at 1 µM [2] [%] | inhibition at 0.1 µM [3] [%] | inhibition at 1 µM [3] [%] | IC50 [3] [nM] | AUC(0-t) [4, 5] [µg·h/mL] | Cmax [4, 5] [ng/mL] | Tmax [4, 5] [h] | AUC(0-inf) [4, 6] [µg·h/mL] | AUC(0-t) [4, 6] [µg·h/mL] | Cmax [4, 6] [ng/mL] | half-life [4, 6] [h] |
| --- | --- | --- | --- | --- | --- | --- | --- | --- | --- | --- | --- | --- |
| C=C(C)[C@@H]1CC[C@]2(C(=O)N3CCC[C@@H]3c3nc(-c4ccccc4)no3)CC[C@]3(C)[C@H](CC[C@@H]4[C@@]5(C)CC[C@H](OC(=O)CC(C)(C)CC(=O)O)C(C)(C)[C@@H]5CC[C@]43C)[C@@H]12 [Compound 2, 3,3-dimethyl-5-oxo-5-((1R,3aS,5aR,5bR,7aR,9S,11aR,11bR,13aR,13bR)-5a,5b,8,8,11a-pentamethyl-3a-((R)-2-(3-phenyl-1,2,4-oxadiazol-5-yl)pyrrolidine-1-carbonyl)-1-(prop-1-en-2-yl)icosahydro-1H-cyclopenta[a]chrysen-9-yloxy)pentanoic acid] | 92 | 90 | 30 | 90 |  |  |  |  |  |  |  |  |
| C=C(C)[C@@H]1CC[C@]2(C(=O)N3CCC[C@@H]3c3nc(-c4cccnc4)no3)CC[C@]3(C)[C@H](CC[C@@H]4[C@@]5(C)CC[C@H](OC(=O)CC(C)(C)C(=O)O)C(C)(C)[C@@H]5CC[C@]43C)[C@@H]12 [Compound 3, 2,2-dimethyl-4-oxo-4-((1R,3aS,5aR,5bR,7aR,9S,11aR,11bR,13aR,13bR)-5a,5b,8,8,11a-pentamethyl-1-(prop-1-en-2-yl)-3a-((R)-2-(3-(pyridin-3-yl)-1,2,4-oxadiazol-5-yl)pyrrolidine-1-carbonyl)icosahydro-1H-cyclopenta[a]chrysen-9-yloxy)butanoic acid] | 100 | 97 | 100 | 100 | 3.34 | 66.5 | 7430 | 1.75 |  |  |  |  |
| CC(C)(CC(=O)O[C@H]1CC[C@]2(C)[C@H]3CC[C@@H]4[C@H]5[C@H](C6(C)CC6)CC[C@]5(C(=O)N5CCC[C@@H]5c5nc(-c6ccccc6)no5)CC[C@@]4(C)[C@]3(C)CC[C@H]2C1(C)C)C(=O)O [Compound 5, 2,2-dimethyl-4-oxo-4-((1R,3aS,5aR,5bR,7aR,9S,11aR,11bR,13aR,13bR)-5a,5b,8,8,11a-pentamethyl-1-(1-methylcyclopropyl)-3a-((R)-2-(3-phenyl-1,2,4-oxadiazol-5-yl)pyrrolidine-1-carbonyl)icosahydro-1H-cyclopenta[a]chrysen-9-yloxy)butanoic acid] | 100 | 91 | 64 | 99 |  |  |  |  |  |  |  |  |
| C=C(C)[C@@H]1CC[C@]2(C(=O)N3CCC[C@H]3c3ncc(-c4ccccc4)[nH]3)CC[C@]3(C)[C@H](CC[C@@H]4[C@@]5(C)CC[C@H](OC(=O)CC(C)(C)C(=O)O)C(C)(C)[C@@H]5CC[C@]43C)[C@@H]12 [Compound 8, 2,2-dimethyl-4-oxo-4-((1R,3aS,5aR,5bR,7aR,9S,11aR,11bR,13aR,13bR)-5a,5b,8,8,11a-pentamethyl-3a-((S)-2-(5-phenyl-1H-imidazol-2-yl)pyrrolidine-1-carbonyl)-1-(prop-1-en-2-yl)icosahydro-1H-cyclopenta[a]chrysen-9-yloxy)butanoic acid] | 88 | 96 | 100 | 100 | 12.9 | 143 | 11100 | 3.75 |  |  |  |  |
| CC(C)(CC(=O)O[C@H]1CC[C@]2(C)[C@H]3CC[C@@H]4[C@H]5[C@H](C6(C)CC6)CC[C@]5(C(=O)N5CCC[C@H]5c5ncc(-c6ccccc6)[nH]5)CC[C@@]4(C)[C@]3(C)CC[C@H]2C1(C)C)C(=O)O [Compound 12, 2,2-dimethyl-4-oxo-4-((1R,3aS,5aR,5bR,7aR,9S,11aR,11bR,13aR,13bR)-5a,5b,8,8,11a-pentamethyl-1-(1-methylcyclopropyl)-3a-((S)-2-(5-phenyl-1H-imidazol-2-yl)pyrrolidine-1-carbonyl)icosahydro-1H-cyclopenta[a]chrysen-9-yloxy)butanoic acid] |  | 85 | 100 | 100 | 4.59 | 69.3 | 7260 | 3 |  |  |  |  |
| CC(C)(CC(=O)O[C@H]1CC[C@]2(C)[C@H]3CC[C@@H]4[C@H]5[C@H](C6(C)CC6)CC[C@]5(C(=O)N5CCC[C@H]5c5ncc(-c6ccc(F)cc6)[nH]5)CC[C@@]4(C)[C@]3(C)CC[C@H]2C1(C)C)C(=O)O [Compound 33, 4-(((1R,3aS,5aR,5bR,7aR,9S,11aR,11bR,13aR,13bR)-3a-((S)-2-(5-(4-fluorophenyl)-1H-imidazol-2-yl)pyrrolidine-1-carbonyl)-5a,5b,8,8,11a-pentamethyl-1-(1-methylcyclopropyl)icosahydro-1H-cyclopenta[a]chrysen-9-yl)oxy)-2,2-dimethyl-4-oxobutanoic acid] |  |  |  |  | 9.5 |  |  |  | 152 | 88.7 | 4400 | 32.1 |
| C=C(C)[C@@H]1CC[C@]2(C(=O)N3CCC[C@H]3c3ncc(-c4ccc(F)cc4)[nH]3)CC[C@]3(C)[C@H](CC[C@@H]4[C@@]5(C)CC[C@H](OC(=O)CC(C)(C)C(=O)O)C(C)(C)[C@@H]5CC[C@]43C)[C@@H]12 [Compound 34, 4-(((1R,3aS,5aR,5bR,7aR,9S,11aR,11bR,13aR,13bR)-3a-((S)-2-(5-(4-fluorophenyl)-1H-imidazol-2-yl)pyrrolidine-1-carbonyl)-5a,5b,8,8,11a-pentamethyl-1-(prop-1-en-2-yl)icosahydro-1H-cyclopenta[a]chrysen-9-yl)oxy)-2,2-dimethyl-4-oxobutanoic acid] |  |  |  |  | 17 |  |  |  | 263 | 224 | 13300 | 16.1 |
| C=C(C)[C@@H]1CC[C@]2(C(=O)N3CCC[C@H]3c3ncc(-c4ccc(F)cc4)[nH]3)CC[C@]3(C)[C@H](CC[C@@H]4[C@@]5(C)CC[C@H](OC(=O)C6CC(C(=O)O)C6(C)C)C(C)(C)[C@@H]5CC[C@]43C)[C@@H]12 (stereo partly drawn) [Compound 35, 3-((((1R,3aS,5aR,5bR,7aR,9S,11aR,11bR,13aR,13bR)-3a-((S)-2-(5-(4-fluorophenyl)-1H-imidazol-2-yl)pyrrolidine-1-carbonyl)-5a,5b,8,8,11a-pentamethyl-1-(prop-1-en-2-yl)icosahydro-1H-cyclopenta[a]chrysen-9-yl)oxy)carbonyl)-2,2-dimethylcyclobutane-1-carboxylic acid] |  |  |  |  | 74 |  |  |  | 655 | 410 | 16000 | 34.2 |
| CC(C)(CC(=O)O[C@H]1CC[C@]2(C)[C@H]3CC[C@@H]4[C@H]5[C@H](C6(C)CC6)CC[C@]5(C(=O)N5CCC[C@H]5c5ncc(-c6cccs6)[nH]5)CC[C@@]4(C)[C@]3(C)CC[C@H]2C1(C)C)C(=O)O [Compound 38] |  |  |  |  | 8.4 |  |  |  | 119 | 110 | 7000 | 12.3 |
| CC1(C)C(C(=O)O)CC1C(=O)O[C@H]1CC[C@]2(C)[C@H]3CC[C@@H]4[C@H]5[C@H](C6(C)CC6)CC[C@]5(C(=O)N5CCC[C@H]5c5ncc(-c6ccc(F)cc6)[nH]5)CC[C@@]4(C)[C@]3(C)CC[C@H]2C1(C)C (stereo partly drawn) [Compound 42, 3-((((1R,3aS,5aR,5bR,7aR,9S,11aR,11bR,13aR,13bR)-3a-((S)-2-(5-(4-fluorophenyl)-1H-imidazol-2-yl)pyrrolidine-1-carbonyl)-5a,5b,8,8,11a-pentamethyl-1-(1-methylcyclopropyl)icosahydro-1H-cyclopenta[a]chrysen-9-yl)oxy)carbonyl)-2,2-dimethylcyclobutane-1-carboxylic acid] |  |  |  |  | < 0.3 |  |  |  | 448 | 254 | 9300 | 37.3 |
| CC1(C)C(C(=O)O)CC1C(=O)O[C@H]1CC[C@]2(C)[C@H]3CC[C@@H]4[C@H]5[C@H](C6(C)CC6)CC[C@]5(C(=O)N5CCC[C@H]5c5ncc(-c6ccccc6)[nH]5)CC[C@@]4(C)[C@]3(C)CC[C@H]2C1(C)C (stereo partly drawn) [Compound 43, 2,2-dimethyl-3-((((1R,3aS,5aR,5bR,7aR,9S,11aR,11bR,13aR,13bR)-5a,5b,8,8,11a-pentamethyl-1-(1-methylcyclopropyl)-3a-((S)-2-(5-phenyl-1H-imidazol-2-yl)pyrrolidine-1-carbonyl)icosahydro-1H-cyclopenta[a]chrysen-9-yl)oxy)carbonyl)cyclobutane-1-carboxylic acid] |  |  |  |  | 4.4 |  |  |  | 776 | 294 | 13900 | 55.6 |
